Reference: article PMC4454744 (Analytical biochemistry, 2015)
Like-named read-outs stand apart in the source and are kept apart here.

Key:
[1] = tested on: hepatitis C virus NS3 protease; settings: jump dilution; cited from earlier work
[2] = target: T1, R40Q/K41N/S44L saFabI variant (Staphylococcus aureus, UniProt Q6GI75, K41N/R40Q/S44L); assay: [32P]-NAD+ direct dissociation method, saFabI; type: binding; settings: saFabI system
T1 sequence (Q6GI75 1-256 R40Q/K41N/S44L): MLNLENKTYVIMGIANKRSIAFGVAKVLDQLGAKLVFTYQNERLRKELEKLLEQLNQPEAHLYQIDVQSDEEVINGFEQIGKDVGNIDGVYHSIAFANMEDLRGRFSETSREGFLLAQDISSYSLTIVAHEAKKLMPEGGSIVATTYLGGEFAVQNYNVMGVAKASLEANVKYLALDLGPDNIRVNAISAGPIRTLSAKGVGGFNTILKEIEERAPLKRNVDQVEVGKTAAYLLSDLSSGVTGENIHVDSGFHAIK

[3] = tested on: saFabI; assay: Progress curve analysis, saFabI; type: biochemical, Staphylococcus aureus; settings: for residence time tR: progress curve analysis, saFabI system, 20 °C
[4] = target: T2, M. tuberculosis FabI (InhA) (Mycobacterium tuberculosis, UniProt P9WGR1)
[5] = target: T2, M. tuberculosis FabI (InhA); settings: progress curve analysis; bound to InhA; 20 °C

| SMILES | residence time tR [2] | residence time tR [3] | also measured |
| --- | --- | --- | --- |
| CC(C)(C)OC(=O)N[C@H]1CCCCC/C=C\[C@@H]2C[C@@]2(C(=O)NS(=O)(=O)C2CC2)NC(=O)[C@@H]2C[C@@H](OC(=O)N3Cc4cccc(F)c4C3)CN2C1=O [ITMN-191] | – | – | recovery of enzyme activity [1]: partial recovery of enzyme activity |
| CCCCCCc1ccc(Oc2ccccc2)c(O)c1 [PT04] | 461.5 min | 97 min | – |
| CCCCCCc1ccc(Oc2ccccc2Cl)c(O)c1 [PT91] | – | – | residence time tR [4]: 148.4 ± 13.4 min; residence time tR [5]: 102.1 ± 11.4 min |
| CCCCCCc1ccc(Oc2ccccc2C#N)c(O)c1 [PT119] | 833.3 min | 120.3 min | difference in koff ([3]; progress curve analysis vs direct dissociation method, inhibition of saFabI): 8 fold |
